Measurements published in patent US7964647B2 (Mutual Pharmaceutical Company, Inc., priority 2007, dated 2011).
Like-named read-outs stand apart in the source and are kept apart here.

Columns and labels:
[1] = system: patients with acute gout flare (acute gouty arthritic attack); test: Same acute gout flare study: safety (treatment emergent adverse events); type: in vivo, human
Text: A sufficient number of patients are screened to enroll and randomize 300 patients (100 patients per treatment group) who meet the criteria of the American College of Rheumatology (ACR) for acute arthritis of gout. […] Secondary objectives of the study are to compare low-dose and standard-dose dosing regimens of colchicine with respect to pain, time to response and complete pain relief, interference with sleep, and signs and symptoms of inflammation and to determine the safety of colchicine when administered in the two different dosing regimens.
Safety assessments will be made based on patient and Investigator inputs. Patients will be initially screened in the clinic for inclusion by review of medical history and concomitant medication use, physical examination, measurement of vital signs (oral temperature, sitting radial or brachial pulse rate, respiratory rate, and sitting blood pressure), body weight, and clinical laboratory testing (serum biochemistry, complete blood count, and urinalysis). After randomization, clinical laboratory tests, concomitant medication use, medical history and current complaints (AE) will be reviewed every 3 months until an acute gout flare occurs in order to ensure continued eligibility. Compliance with key inclusion/exclusion criteria (based on intervening medical history and concomitant medication use) will be re confirmed by the Gout Flare Call Center prior to authorizing the start of study drug. Following the start of study drug, patients will record any severe gastrointestinal AEs on their diaries and these will be recorded in the Case Report Form (CRF) at each clinic visit. Full physical examinations and clinical laboratory testing will be conducted at the final clinic visit (Visit 4 or Visit 5). Vital signs and body weight will be measured at each Post Flare visit (Visit 3 and 4 or 5). For those patients in whom there is an unresolved AE or clinically significant treatment emergent laboratory abnormality, there will be one additional follow up visit 14 days post flare onset (Visit 6).
Safety analysis will be performed by coding adverse events using a standardized medical dictionary and the incidence summarized by treatment group; tabulations will be prepared of all AEs as well as by relationship and by severity. Adverse events resulting in termination and events meeting regulatory criteria for seriousness will also be tabulated separately. Descriptive statistics (mean, median, standard deviation, and range) of clinical laboratory testing results and vital sign measurements will be generated for each treatment group and change from the most recent value prior to onset of the acute gout flare calculated; no inferential testing will be performed. Treatment emergent abnormalities on physical examination will be tabulated and listed by treatment group. By patient listings of all safety data and concomitant medication use will be generated.

[2] = 0.6 mg b.i.d. x 10 days, after last dose (Day 25), healthy adults, N = 13
[3] = single oral 0.6 mg dose, healthy adults, N = 13

SMILES: COc1cc2c(c(OC)c1OC)-c1ccc(OC)c(=O)cc1[C@@H](NC(C)=O)CC2 [Colchicine, (−)-N-[(7S,12aS)-1,2,3,10-tetramethoxy-9-oxo-5,6,7,9-tetrahydrobenzo[a]heptalen-7-yl]-acetamide]
- AUC0-inf, MAX [2]: 67.94465 ng·h/mL
- AUC0-inf, MEAN [2]: 54.19877 ng·h/mL
- AUC0-inf, MEDIAN [2]: 54.11343 ng·h/mL
- AUC0-inf, MIN [2]: 37.59976 ng·h/mL
- AUC0-t, MAX [2]: 58.26535 ng·h/mL
- AUC0-t, MEAN [2]: 43.57696 ng·h/mL
- AUC0-t, MEDIAN [2]: 41.9251 ng·h/mL
- AUC0-t, MIN [2]: 29.32878 ng·h/mL
- AUC0-τ, MAX [2]: 36.08395 ng·h/mL
- AUC0-τ, MIN [2]: 20.79198 ng·h/mL
- Cave, MAX [2]: 1.5035 ng/mL
- Cave, MEAN [2]: 1.21068 ng/mL
- Cave, MEDIAN [2]: 1.18551 ng/mL
- Cave, MIN [2]: 0.86633 ng/mL
- Cmax, MAX [2]: 4.957 ng/mL
- Cmax, MEAN [2]: 3.55315 ng/mL
- Cmax, MEDIAN [2]: 3.734 ng/mL
- Cmax, MIN [2]: 1.977 ng/mL
- Cmin, MAX [2]: 1.14967 ng/mL
- Cmin, MEDIAN [2]: 0.9035 ng/mL
- Cmin, MIN [2]: 0.63623 ng/mL
- Kel, MAX [2]: 0.03 h⁻¹
- Kel, MEAN [2]: 0.03 h⁻¹
- Kel, MEDIAN [2]: 0.03 h⁻¹
- Kel, MIN [2]: 0.02 h⁻¹
- T1/2, MAX [2]: 33.65 h
- T1/2, MEDIAN [2]: 26.51 h
- T1/2, MIN [2]: 20.82 h
- Tmax, MAX [2]: 3.00 h
- Tmax, MEAN [2]: 1.31 h
- Tmax, MIN [2]: 0.50 h
- AUC0-inf, MAX [3]: 23.83848 ng·h/mL
- AUC0-inf, MIN [3]: 7.25266 ng·h/mL
- AUC0-t, MAX [3]: 18.12865 ng·h/mL
- AUC0-t, MIN [3]: 4.81288 ng·h/mL
- Cmax, MAX [3]: 3.977 ng/mL
- Cmax, MIN [3]: 1.584 ng/mL
- Kel, MAX [3]: 0.2443 h⁻¹
- Kel, MEAN [3]: 0.1829 h⁻¹
- Kel, MEDIAN [3]: 0.1992 h⁻¹
- Kel, MIN [3]: 0.0359 h⁻¹
- T1/2, MAX [3]: 19.29 h
- T1/2, MIN [3]: 2.84 h
- Tmax, MAX [3]: 3.00 h
- Cmin prior to the morning dose higher than Cmin prior to the evening dose (steady state, Day 23 and Day 24): approximately 12%
- Patients with severe TEAE: Gout ([1]; All colchicine, N = 126): 0 n
- Patients with severe TEAE: Metabolism and Nutrition Disorders ([1]; All colchicine, N = 126): 0 n
- Number (%) of patients with a TEAE discontinuing study ([1]; High dose 4.8 mg, N = 52): 0 n (%)
- Number (%) of patients with a treatment emergent SAE ([1]; High dose 4.8 mg, N = 52): 0 n (%)
- Number (%) of patients with at least one TEAE ([1]; High dose 4.8 mg, N = 52): 40 (76.9) n (%)
- Number (%) of patients with at least one mild TEAE ([1]; High dose 4.8 mg, N = 52): 15 (28.8) n (%)
- Number (%) of patients with at least one moderate TEAE ([1]; High dose 4.8 mg, N = 52): 15 (28.8) n (%)
- Number (%) of patients with at least one severe TEAE ([1]; High dose 4.8 mg, N = 52): 10 (19.2) n (%)
- Total number of TEAEs ([1]; High dose 4.8 mg, N = 52, safety population): 85
- Patients with at least one drug-related TEAE ([1]; High dose, N = 52): 38 (73.1) n (%)
- Patients with drug-related TEAE: Diarrhea ([1]; High dose, N = 52): 38 (73.1) n (%)
- Patients with drug-related TEAE: Gastro-intestinal Disorders ([1]; High dose, N = 52): 38 (73.1) n (%)
- Patients with drug-related TEAE: Nausea ([1]; High dose, N = 52): 7 (13.5) n (%)
- Patients with drug-related TEAE: Vomiting ([1]; High dose, N = 52): 8 (15.4) n (%)
- Patients with severe TEAE: Diarrhea ([1]; High dose, N = 52): 19.2%
- Patients with severe TEAE: Gout ([1]; High dose, N = 52): 0 n
- Patients with severe TEAE: Metabolism and Nutrition Disorders ([1]; High dose, N = 52): 0 n
- Number (%) of patients with a TEAE discontinuing study ([1]; Low dose 1.8 mg, N = 74): 0 n (%)
- Number (%) of patients with a treatment emergent SAE ([1]; Low dose 1.8 mg, N = 74): 0 n (%)
- Number (%) of patients with at least one TEAE ([1]; Low dose 1.8 mg, N = 74): 27 (36.5) n (%)
- Number (%) of patients with at least one mild TEAE ([1]; Low dose 1.8 mg, N = 74): 19 (25.7) n (%)
- Number (%) of patients with at least one moderate TEAE ([1]; Low dose 1.8 mg, N = 74): 8 (10.8) n (%)
- Number (%) of patients with at least one severe TEAE ([1]; Low dose 1.8 mg, N = 74): 0 n (%)
- Number (%) of patients with at least one treatment-emergent gastrointestinal AE, captured on Adverse Event CRF, All ([1]; Low dose 1.8 mg, N = 74): 19 (25.7) Number (%)
- Number (%) of patients with at least one treatment-emergent gastrointestinal AE, captured on Adverse Event CRF, Severe ([1]; Low dose 1.8 mg, N = 74): 0 Number (%)
- Number (%) of patients with at least one treatment-emergent gastrointestinal AE, captured on Patient Diary or Adverse Event CRF, All ([1]; Low dose 1.8 mg, N = 74): 33 (44.6) Number (%)
- Number (%) of patients with at least one treatment-emergent gastrointestinal AE, captured on Patient Diary or Adverse Event CRF, Severe ([1]; Low dose 1.8 mg, N = 74): 3 (4.1) Number (%)
- Number (%) of patients with at least one treatment-emergent gastrointestinal AE, captured on Patient Diary, Severe ([1]; Low dose 1.8 mg, N = 74): 3 (4.1) Number (%)
- Total number of TEAEs ([1]; Low dose 1.8 mg, N = 74, safety population): 34
- Patients with at least one severe TEAE (any) ([1]; Low dose, N = 74): 0 n
- Patients with drug-related TEAE: Diarrhea ([1]; Low dose, N = 74): 21.6%
- Patients with drug-related TEAE: Gastro-intestinal Disorders ([1]; Low dose, N = 74): 24.3%
- Patients with drug-related TEAE: Vomiting ([1]; Low dose, N = 74): 0 n
- Patients with severe TEAE: Diarrhea ([1]; Low dose, N = 74): 0 n
- Patients with severe TEAE: Gastrointestinal Disorders ([1]; Low dose, N = 74): 0 n
- Patients with severe TEAE: Gout ([1]; Low dose, N = 74): 0 n
- Patients with severe TEAE: Melaena ([1]; Low dose, N = 74): 0 n
- Patients with severe TEAE: Metabolism and Nutrition Disorders ([1]; Low dose, N = 74): 0 n
- Patients with severe TEAE: Musculoskeletal and Connective Tissue Disorders ([1]; Low dose, N = 74): 0 n
- Patients with severe TEAE: Nausea ([1]; Low dose, N = 74): 0 n
- Patients with severe TEAE: Pain in Extremity ([1]; Low dose, N = 74): 0 n
- Number (%) of patients with at least one treatment-emergent gastrointestinal AE, captured on Adverse Event CRF, All ([1]; Standard dose 4.8 mg, N = 52): 40 (76.9)^2 Number (%)
- Number (%) of patients with at least one treatment-emergent gastrointestinal AE, captured on Adverse Event CRF, Severe ([1]; Standard dose 4.8 mg, N = 52): 10 (19.2) Number (%)
- Number (%) of patients with at least one treatment-emergent gastrointestinal AE, captured on Patient Diary or Adverse Event CRF, All ([1]; Standard dose 4.8 mg, N = 52): 49 (94.2)^2 Number (%)
- Number (%) of patients with at least one treatment-emergent gastrointestinal AE, captured on Patient Diary or Adverse Event CRF, Severe ([1]; Standard dose 4.8 mg, N = 52): 18 (34.6) Number (%)
- Number (%) of patients with at least one treatment-emergent gastrointestinal AE, captured on Patient Diary, All ([1]; Standard dose 4.8 mg, N = 52): 48 (92.3)^2 Number (%)
- Number (%) of patients with at least one treatment-emergent gastrointestinal AE, captured on Patient Diary, Severe ([1]; Standard dose 4.8 mg, N = 52): 13 (25.0) Number (%)
- Proportion of patients with vomiting ([1]; high-dose 4.8 mg): 15.4%
- Occurrence of severe diarrhea ([1]; low-dose group 1.8 mg): not occurring
- Occurrence of vomiting ([1]; low-dose group 1.8 mg): not occurring
- Proportion of patients with diarrhea ([1]; standard dose 4.8 mg): 73.1%
- Proportion of patients with gastrointestinal side effects ([1]; standard dose 4.8 mg): 73.1%
